The source of these data is patent publication US12611423B2, “Medical use of tafoxiparin” (DILAFOR AB, priority 2022, dated 2026).

A short description of experiment [1]: anticoagulant activity (descriptive).
The subject of a further experiment is factor IIa. The experiment can be described thus: antifactor IIa activity of tafoxiparin. The experiment is classed as biochemical. As to conditions: definition of tafoxiparin.

Sequence of factor IIa (P01008 33-464): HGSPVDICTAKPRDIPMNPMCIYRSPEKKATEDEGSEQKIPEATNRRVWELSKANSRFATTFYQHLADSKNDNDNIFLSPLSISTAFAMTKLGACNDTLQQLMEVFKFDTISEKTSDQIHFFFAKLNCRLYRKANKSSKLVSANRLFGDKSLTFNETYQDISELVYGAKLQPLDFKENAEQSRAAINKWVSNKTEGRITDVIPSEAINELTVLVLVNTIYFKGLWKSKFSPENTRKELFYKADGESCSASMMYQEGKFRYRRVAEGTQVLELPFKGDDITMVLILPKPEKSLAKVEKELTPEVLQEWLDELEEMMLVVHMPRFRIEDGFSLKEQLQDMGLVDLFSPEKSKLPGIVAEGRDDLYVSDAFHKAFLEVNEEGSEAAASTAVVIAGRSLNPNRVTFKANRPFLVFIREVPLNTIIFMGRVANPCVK

Consider tafoxiparin, for which, in experiment [1], the anticoagulant activity entry was “essentially no anticoagulant activity”. Besides, the “antifactor Ila activity” value in the experiment with factor IIa is on record as “less than 10 IU/mg”.
